Measurements published in patent US5945566A, “Amino compounds of 6,7,8,9-tetrahydro-cyclopenta[a]naphthalene and of 2,3-dihydro-cyclopenta[e]indene” (Adir et Compagnie, priority 1997, dated 1999).

What was measured:
[1] = biological target: T1, human dopamine D3 receptor (Homo sapiens, UniProt P35462); test: human D3 receptor binding ([125I]-iodosulpride, CHO membranes)
T1 construct: expressed in transfected cells; membranes
Method: (§1) .check mark. In vitro: human D2 and D3 receptor binding study
(§2) CHO (Chinese Hamster Ovary) cells were transfected in a stable manner by the gene that codes for the human dopamine D2 or D3 receptor according to methods known from the literature. The native cells are deficient in the enzyme DHFR (DiHydroFolate Reductase). The cells are cultured in an incubator at 37° C. in a humid atmosphere of 5% CO2 /95% air. The transfections are carried out using Lipofectin (Gibco). The CHO cells, co-transfected with the human D2 receptor and the gene for resistance to phleomycin, were selected for their resistance to the presence of that antibiotic in the culture medium. The cells transfected with the human D3 receptor were selected in a medium containing no hypoxanthine/thymidine in the presence of methotrexate. […]
(§3) The ranges of concentration of each compound include at least seven points determined in triplicate, each experiment being repeated at least twice.
(§4) The incubation, which lasts for thirty minutes at 30° C., is terminated by means of rapid filtration over a Brandle apparatus, followed by three consecutive rinses with Tris-HCl buffer, pH 7.4, containing 120 mM NaCl. The filters recovered are then counted using a gamma counter. […]

[2] = biological target: T2, human dopamine D2 receptor (Homo sapiens, UniProt P14416); test: human D2 receptor binding ([125I]-iodosulpride, CHO membranes); conditions: dissociation constant of radioligand
T2 construct: expressed in transfected cells; membranes
Method: as §1, §2, §3, §4

T1 sequence (P35462 whole entry): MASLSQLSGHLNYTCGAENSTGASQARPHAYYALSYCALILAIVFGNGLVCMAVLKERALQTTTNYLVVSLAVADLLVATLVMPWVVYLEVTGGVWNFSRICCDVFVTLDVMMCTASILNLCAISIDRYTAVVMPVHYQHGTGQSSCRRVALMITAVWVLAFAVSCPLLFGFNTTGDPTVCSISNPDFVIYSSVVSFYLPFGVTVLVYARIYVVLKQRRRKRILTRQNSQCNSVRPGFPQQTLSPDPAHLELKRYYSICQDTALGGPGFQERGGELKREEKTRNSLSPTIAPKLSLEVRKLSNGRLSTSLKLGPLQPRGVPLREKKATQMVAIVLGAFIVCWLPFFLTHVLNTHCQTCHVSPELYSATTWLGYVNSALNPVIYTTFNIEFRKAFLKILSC
T2 sequence (P14416 whole entry): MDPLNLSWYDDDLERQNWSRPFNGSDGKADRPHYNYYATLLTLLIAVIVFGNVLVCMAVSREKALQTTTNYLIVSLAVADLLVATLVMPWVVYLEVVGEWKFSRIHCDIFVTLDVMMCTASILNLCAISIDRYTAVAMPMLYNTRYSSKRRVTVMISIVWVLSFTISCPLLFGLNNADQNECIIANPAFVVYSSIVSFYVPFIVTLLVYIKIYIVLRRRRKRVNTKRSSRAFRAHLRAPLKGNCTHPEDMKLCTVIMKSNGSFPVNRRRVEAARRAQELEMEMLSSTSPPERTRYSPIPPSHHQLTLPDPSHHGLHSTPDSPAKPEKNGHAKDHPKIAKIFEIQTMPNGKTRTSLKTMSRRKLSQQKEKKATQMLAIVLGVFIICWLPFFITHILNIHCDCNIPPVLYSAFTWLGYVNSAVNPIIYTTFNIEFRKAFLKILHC

Ki ([1]; [125I]-iodosulpride 0.2 nM, CHO membranes, pKi = -logKi) [nM]	Compound	Kd [2] [nM]	Kd ([1]; dissociation constant of radioligand) [nM]
10	CCCN(CCC)C1CCc2c(ccc3c2C(=O)CC3)C1 (racemic) [Example 2, (7R,S)-7-(N,N-Dipropylamino)-6,7,8,9-tetrahydro-cyclopenta[a]-naphthalen-1-one]		
	[^125 I]-iodosulpride	0.5	1.31
